Where “and” joins values, the source holds several entries; their conditions need not be identical. Equal values may be shown once.

For assay [1], the system named is SARS-CoV-2 Isolate USA-WA1/2020. The assay is described as follows: SARS-CoV-2 plaque assay in Vero E6 cells (virus pre-incubated with peptoid). It is filed as cell-based. The note with it: for % control: plaque count relative to control; for Count (plaques): virus-peptoid incubated two hours at 37° C., Vero E6.
In a further assay the test system is HSV. The note with it: acyclovir treatment, given orally; cited from earlier work.

Regarding “H-((NLys-Nspe(p-Br)-Nspe(p-Br))2—NH2 [MXB-004]”, the “% control” value in assay [1] (5 μg/ml) is 86.36% and 102.27%; in assay [1] (10 μg/ml), 136.36% and 134.09%; in assay [1] (20 μg/ml), 54.55% and 56.82%; in assay [1] (40 μg/ml), 15.91%. For the same compound, the “Count (plaques)” value was 38 and 45 in assay [1] (5 μg/ml); 60 and 59 in assay [1] (10 μg/ml); 24 and 25 in assay [1] (20 μg/ml); 7 in assay [1] (40 μg/ml).

Regarding H-(NLys-Nspe-Nspe)4-NH2 [MXB-001], the “% control” value in assay [1] (5 μg/ml) was 118.18% and 113.64%; in assay [1] (10 μg/ml), 100% and 118.18%; in assay [1] (20 μg/ml), 125%; in assay [1] (40 μg/ml), 104.55%. Further, the “Count (plaques)” value in assay [1] (5 μg/ml) was 52 and 50; in assay [1] (10 μg/ml), 44 and 52; in assay [1] (20 μg/ml) it was 55; in assay [1] (40 μg/ml) it was 46.

Turning to `Nc1nc2c(ncn2COCCO)c(=O)[nH]1` [acyclovir], the reduction of transmission in the assay with HSV is 50%.

The values above are taken from US12678477B2, “Antiviral peptoid compositions” (priority 2019, dated 2026).
